Experimental data reported in patent US6613317B1, “Volatile attractants for diabrotica species” (priority 1988, dated 2003).
Marks after values point to notes of the source that are not given here.

Columns and labels:
D. v. virgifera [1] = test: Sticky trap attraction along hybrid corn, Pomology South Farms (Example 2); type: in vivo, Diabrotica virgifera virgifera; conditions: August 7; 100 mg per trap; n = 4
Procedure: (§1) The candidate lures in all experiments were purchased commercially and exceeded 98% purity. The test chemicals were applied by capillary micropipettes to cotton dental wicks which were attached to the tops of 1.0 liter cylindrical paper cartons covered with TangleTrap™ (Tanglefoot Co., Grand Rapids, Mich.). The sticky trap techniques used were as described in Example 1. Cinnamyl alcohol and para-methoxycinnamaldehyde, which are solids, were dissolved in glass-distilled acetone prior to dosing the cotton wicks. All treatments were applied at a dosage of 100 mg per trap. 1,2,4-trimethoxybenzene, indole, and trans-cinnamaldehyde were mixed in a ratio of 1:1:1, by weight, immediately prior to dosing the cotton wicks. Control traps had untreated cotton wicks. Four replicates of treated and untreated traps were randomly positioned 10 meters apart on top of 1 m high posts along the border of a eight foot wide strip cut through the middle of a 4.05 ha relict prairie at Trelease Woods (ca. two miles northeast of Urbana, Ill.). The field consisted primarily of Andropogon gerardii Vitman (big bluestem) and a variety of composites. The tests were conducted in mid-August of two years and were timed to coincide with the presence of D. cristata and D. barberi adults in the flower heads of Canada thistle (Carduus arvensis Robson). In the second year, several new attractants of D. v. virgifera and D. barberi were tested in Trelease Woods and along the edge of a 0.8 ha field of hybrid corn located at the Pomology South Farms, Urbana, Ill. Attraction of Diabrotica species to the various lures was measured by the mean number of beetles caught after 24-h. On one date in late August of the first year, D. cristata and D. barberi were removed from the traps and sexed in the laboratory. The significance of treatments in all tests was determined by an analysis of variance and the individual means were separated by Duncan's multiple range test (Statistical Package for Social Science, Nie, et al., SPSS: statistical package for the social sciences, 2nd ed. McGraw-Hill, New York (1975). Data were logarithmically transformed for statistical analysis and the means and standard deviations are presented for the untransformed data.

D. cristata = test: Sticky trap attraction in prairie habitat, Trelease Woods (Example 2); type: in vivo, Diabrotica cristata; conditions: 100 mg per trap, n = 4
Method in brief: (§2)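 Lure-dosed cotton wicks (solids in acetone; untreated controls) on TangleTrap-coated cartons atop 1 m posts, four replicates 10 m apart in relict prairie, mid-August over two years. Read-out: mean beetles caught after 24-h; log-transformed ANOVA with Duncan's multiple range test.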

[2] = tested on: western corn rootworm (WCR) adults; conditions: in vivo; cited from earlier work
[3] = tested on: western corn rootworm (WCR) adults; test: Sticky trap attraction in corn, estragole analogues (Example 3); type: in vivo, Diabrotica virgifera virgifera; conditions: 100 mg per trap
Method in brief: (§3)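 Cotton wicks dosed with 100 mg or 100 μL attractant per trap on TangleTrap-coated cartons, four replicates 10 m apart on 1 m posts at field edges of hybrid or sweet corn. Mean beetles caught after ~24 h; log-transformed ANOVA with Duncan's test, P=0.05.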

[4] = tested on: northern corn rootworm (NCR) adults; test: as above; type: in vivo, Diabrotica barberi; conditions: August 7 (Table 11); 100 mg per trap; n = 4
Method in brief: as §3

D. barberi [5] = test: Sticky trap attraction along hybrid corn, Pomology South Farms (Example 2); type: in vivo, Diabrotica barberi; conditions: August 7; 100 mg per trap; n = 4
Procedure: as §1

D. v. virgifera [6] = test: Sticky trap attraction in prairie habitat, Trelease Woods (Example 2); type: in vivo, Diabrotica virgifera virgifera; conditions: 100 mg per trap, n = 4
Method in brief: as §2

D. barberi [7] = test: as above; type: in vivo, Diabrotica barberi; conditions: 100 mg per trap, n = 4
Method in brief: as §2

WCR = conditions: in vivo; cited from earlier work
D. u. howardi [8] = test: Sticky trap attraction in prairie habitat, Trelease Woods (Example 2); type: in vivo, Diabrotica undecimpunctata howardi; conditions: 100 mg per trap, n = 4
Method in brief: as §2

D. u. howardi [9] = test: Sticky trap attraction along hybrid corn, Pomology South Farms (Example 2); type: in vivo, Diabrotica undecimpunctata howardi; conditions: August 7; 100 mg per trap; n = 4
Procedure: as §1

[10] = tested on: southern corn rootworm (SCR) adults; test: Sticky trap attraction in corn, estragole analogues (Example 3); type: in vivo, Diabrotica undecimpunctata howardi; conditions: 100 mg per trap, n = 4
Method in brief: as §3

## C=CCc1ccc(OC)cc1 [I, 4-methoxy-1-allylbenzene]
D. v. virgifera [1]
  Mean number of D. v. virgifera per stick trap per day (±standard deviation) in corn: 64.0 ± 15.9^b per stick trap per day
D. cristata; August 11, 1987
  Mean number of D. cristata per day (±standard deviation): 13.5 ± 4.1^b per day
D. cristata; August 14, 1987
  Mean number of D. cristata per day (±standard deviation): 13.0 ± 4.2^c per day
D. cristata; August 27, first year
  Mean number of D. cristata per sticky trap per day (±standard deviation): 5.3 ± 1.0^b per sticky trap per day
[2]
  LR values for WCR attraction (literature): about 3 mg
[3]; August 4 second year, n = 4
  Mean number of WCR adults per sticky trap (±standard deviation) after 24 hours: 84.5 ± 19.7^d per sticky trap
[3]; August 5 first year, n = 4
  Mean number of WCR adults per sticky trap (±standard deviation) after 24 hours: 17.2 ± 7.8^c per sticky trap
[3]; August 7 (Table 11), n = 4
  Mean number of WCR (±standard deviation) per sticky trap after 24 hours: 64.0 ± 15.9^b per sticky trap
[3]; August 29
  Relative percent activity as compared with the highest mean in the column (WCR): 100%
[3]; August 29, n = 4
  Mean number of WCR per sticky trap (±standard deviation) after 24 hours: 147.2 ± 46.5 per sticky trap
[3]; July 30
  Relative percent activity as compared with the highest mean in the column (WCR): 100%
[3]; July 30, n = 4
  Mean number of WCR per sticky trap (±standard deviation) after 24 hours: 82.1 ± 8.6 per sticky trap
[4]
  Mean number of NCR (±standard deviation) per sticky trap after 24 hours: 2.2 ± 2.1^ab per sticky trap
D. barberi [5]
  Mean number of D. barberi per stick trap per day (±standard deviation) in corn: 2.3 ± 2.1^ab per stick trap per day
D. v. virgifera [6]; August 11, 1987
  Mean number of D. v. virgifera per day (±standard deviation): 0.3 ± 0.5^a per day
D. v. virgifera [6]; August 14, 1987
  Mean number of D. v. virgifera per day (±standard deviation): 0.3 ± 0.5^a per day
D. v. virgifera [6]; August 27, first year
  Mean number of D. v. virgifera per sticky trap per day (±standard deviation): 0 per sticky trap per day
D. barberi [7]; August 11, 1987
  Mean number of D. barberi per day (±standard deviation): 1.0 ± 2.0^a per day
D. barberi [7]; August 14, 1987
  Mean number of D. barberi per day (±standard deviation): 4.0 ± 0.8^b per day
D. barberi [7]; August 27, first year
  Mean number of D. barberi per sticky trap per day (±standard deviation): 6.5 ± 3.7^b per sticky trap per day
WCR
  LR for WCR, most effective volatile attractants yet identified: 3 mg
D. u. howardi [8]; August 11, 1987
  Mean number of D. u. howardi per day (±standard deviation): 0.3 ± 0.5^a per day
D. u. howardi [8]; August 14, 1987
  Mean number of D. u. howardi per day (±standard deviation): 0.5 ± 0.7^a per day
D. u. howardi [8]; August 27, first year
  Mean number of D. u. howardi per sticky trap per day (±standard deviation): 3.0 ± 2.8^a per sticky trap per day
D. u. howardi [9]
  Mean number of D. u. howardi per stick trap per day (±standard deviation) in corn: 7.0 ± 4.5^a per stick trap per day
[10]; August 4 second year
  Mean number of SCR adults per sticky trap (±standard deviation) after 24 hours: 7.2 ± 5.1^a per sticky trap
[10]; August 5 first year
  Mean number of SCR adults per sticky trap (±standard deviation) after 24 hours: 9.2 ± 5.6^a per sticky trap
[10]; August 7 (Table 11)
  Mean number of SCR (±standard deviation) per sticky trap after 24 hours: 7.0 ± 4.5^a per sticky trap
